Source: paper PMC12542638, “Cystathionine β-synthase TtCbs1 from Tetrahymena thermophila catalyzes the synthesis of CdS quantum dots for methyl orange decolorization” (Applied and Environmental Microbiology, 2025)

Biological target: T1, His-TtCbs1 (TtCbs1, cystathionine β-synthase) (Tetrahymena thermophila, UniProt I7M350)
T1 construct: gene TTHERM_00558300
T1 sequence (I7M350 1-500): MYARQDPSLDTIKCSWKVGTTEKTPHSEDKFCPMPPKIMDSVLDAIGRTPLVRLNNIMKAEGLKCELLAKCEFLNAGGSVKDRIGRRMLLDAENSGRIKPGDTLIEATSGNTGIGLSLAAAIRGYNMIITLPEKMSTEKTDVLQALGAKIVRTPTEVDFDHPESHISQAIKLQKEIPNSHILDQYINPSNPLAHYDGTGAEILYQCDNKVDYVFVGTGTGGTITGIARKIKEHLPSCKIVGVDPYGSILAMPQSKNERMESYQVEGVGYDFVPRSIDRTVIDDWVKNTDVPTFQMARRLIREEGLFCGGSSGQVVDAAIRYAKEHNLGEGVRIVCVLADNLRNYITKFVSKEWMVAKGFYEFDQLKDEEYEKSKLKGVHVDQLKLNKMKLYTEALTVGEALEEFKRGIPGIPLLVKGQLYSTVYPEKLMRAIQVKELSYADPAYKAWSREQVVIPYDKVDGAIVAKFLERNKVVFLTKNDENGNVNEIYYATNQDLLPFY
Experiment: CdS quantum dot formation from enzymatically released H2S, UV-Vis and fluorescence
Type: biochemical
Settings: 50 mM Tris-HCl pH 8.5, 37 °C, 0.1 mg/mL enzyme, 4 mM cysteine, 0.5 mM CdCl2; no signal without enzyme

N[C@@H](CS)C(=O)O [L-cysteine]
CdS quantum dot formation from enzymatically released H2S, UV-Vis and fluorescen: Cysteine, as a thiol compound, serves as a substrate for His-TtCbs1 to produce H2S
